{"source": "patent EP0620000A2", "about": "“Cosmetic or pharmaceutical use of N-acylalcanolamines” (RHONE-POULENC RORER GMBH, priority 1992, dated 1994)", "origin": "cited, not measured here", "conditions": "orale Anwendung; tierexperimentelle Prüfungen; DE 27 56 866 A1"}
{"substance": "N-Oleyl-Phosphatidylethanolaminen", "values": [{"measurement": "antiarteriosklerotische bzw. antilipämische Wirkung", "result": "deutlich antiarteriosklerotische bzw. antilipämische Wirkung"}]}
